# Test results published in US20020111274A1, “1-alkyl-3-[1-(substituted phenyl) benzotriazol-6-yl] uracils” (BASF Aktiengesellschaft, priority 2000, published 2002).
# Legend:
# Design in all cases: scale not given here
# [1] = tested on: IPOHE Morningglory, Ivyleaf; test: Preemergence herbicidal evaluation, IPOHE; type: in vivo, Ipomoea hederacea, (L.) Jacq.; conditions: preemergence
# Procedure, shortened: (§1)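 Seeds mixed with potting soil were planted on about one inch of soil in cups, then sprayed with the test compound in aqueous acetone at roughly 0.013 to 0.800 kg per hectare. Plants were kept under standard greenhouse care and injury was rated four to five weeks after treatment.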
# AMBEL Ragweed, Common [2] = test: Preemergence herbicidal evaluation, AMBEL; type: in vivo, Ambrosia artemisifolia, L.; conditions: preemergence
# Procedure, shortened: as §1
# SETVI Foxtail, Green [3] = test: Postemergence herbicidal evaluation, SETVI; type: in vivo, Setaria viridis, (L.) Beau; conditions: postemergence spray, rated about two-three weeks after treatment
# Procedure, shortened: (§2)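 Seedlings grown about two weeks were sprayed with compound in 80/20 acetone/water containing 1.0% methylated seed oil, at the equivalent of about 0.006 to 0.400 kg/ha, through a nozzle at 40 psi. Plants were kept in the greenhouse and rated visually about two to three weeks after treatment.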
# GLXMAW Soybean, Williams [4] = test: Preemergence herbicidal evaluation, GLXMAW; type: in vivo, Glycine max, (L.) Merr. cv Williams; conditions: preemergence
# Procedure, shortened: as §1
# SETVI Foxtail, Green [5] = test: Preemergence herbicidal evaluation, SETVI; type: in vivo, Setaria viridis, (L.) Beau; conditions: preemergence
# Procedure, shortened: as §1
# CASOB Sicklepod [6] = test: Postemergence herbicidal evaluation, CASOB; type: in vivo, Cassia obtusifolia, L.; conditions: postemergence spray, rated about two-three weeks after treatment
# Procedure, shortened: as §2
# [7] = tested on: TRZAWR Wheat, Winter, cv Riband; test: Preemergence herbicidal evaluation, TRZAWR; type: in vivo, Triticum aestivum; conditions: preemergence
# Procedure, shortened: as §1
# CASOB Sicklepod [8] = test: Preemergence herbicidal evaluation, CASOB; type: in vivo, Cassia obtusifolia, L.; conditions: preemergence
# Procedure, shortened: as §1
# AMBEL Ragweed, Common [9] = test: Postemergence herbicidal evaluation, AMBEL; type: in vivo, Ambrosia artemisifolia, L.; conditions: postemergence spray, rated about two-three weeks after treatment
# Procedure, shortened: as §2
# GALAP Galium [10] = test: Postemergence herbicidal evaluation, GALAP; type: in vivo, Galium aparine; conditions: postemergence spray, rated about two-three weeks after treatment
# Procedure, shortened: as §2
# ECHOG Barnyardgrass [11] = test: Preemergence herbicidal evaluation, ECHOG; type: in vivo, Echinochloa crus-galli, (L.) Beau; conditions: preemergence
# Procedure, shortened: as §1
# ZEAMX Corn, Field [12] = test: Preemergence herbicidal evaluation, ZEAMX; type: in vivo, Zea mays, L. (Sammel-Bezeichnung); conditions: preemergence
# Procedure, shortened: as §1
# ORYSAT Rice, Tebonnet [13] = test: Preemergence herbicidal evaluation, ORYSAT; type: in vivo, Oryza sativa, (L.); conditions: preemergence
# Procedure, shortened: as §1
# ECHOG Barnyardgrass [14] = test: Postemergence herbicidal evaluation, ECHOG; type: in vivo, Echinochloa crus-galli, (L.) Beau; conditions: postemergence spray, rated about two-three weeks after treatment
# Procedure, shortened: as §2
# GLXMAW Soybean, Williams [15] = test: Postemergence herbicidal evaluation, GLXMAW; type: in vivo, Glycine max, (L.) Merr. cv Williams; conditions: postemergence spray, rated about two-three weeks after treatment
# Procedure, shortened: as §2
# GALAP Galium [16] = test: Preemergence herbicidal evaluation, GALAP; type: in vivo, Galium aparine; conditions: preemergence
# Procedure, shortened: as §1
# [17] = tested on: CHEAL Lambsquarters, Common; test: Postemergence herbicidal evaluation, CHEAL; type: in vivo, Chenopodium album, L.; conditions: postemergence spray, rated about two-three weeks after treatment
# Procedure, shortened: as §2
# [18] = tested on: CHEAL Lambsquarters, Common; test: Preemergence herbicidal evaluation, CHEAL; type: in vivo, Chenopodium album, L.; conditions: preemergence
# Procedure, shortened: as §1
# [19] = tested on: TRZAWR Wheat, Winter, cv Riband; test: Postemergence herbicidal evaluation, TRZAWR; type: in vivo, Triticum aestivum; conditions: postemergence spray, rated about two-three weeks after treatment
# Procedure, shortened: as §2
# ABUTH Velvetleaf [20] = test: Postemergence herbicidal evaluation, ABUTH; type: in vivo, Abutilon theophrasti, Medic.; conditions: postemergence spray, rated about two-three weeks after treatment
# Procedure, shortened: as §2
# ZEAMX Corn, Field [21] = test: Postemergence herbicidal evaluation, ZEAMX; type: in vivo, Zea mays, L. (Sammel-Bezeichnung); conditions: postemergence spray, rated about two-three weeks after treatment
# Procedure, shortened: as §2
# ABUTH Velvetleaf [22] = test: Preemergence herbicidal evaluation, ABUTH; type: in vivo, Abutilon theophrasti, Medic.; conditions: preemergence
# Procedure, shortened: as §1
# ORYSAT Rice, Tebonnet [23] = test: Postemergence herbicidal evaluation, ORYSAT; type: in vivo, Oryza sativa, (L.); conditions: postemergence spray, rated about two-three weeks after treatment
# Procedure, shortened: as §2
# [24] = tested on: IPOHE Morningglory, Ivyleaf; test: Postemergence herbicidal evaluation, IPOHE; type: in vivo, Ipomoea hederacea, (L.) Jacq.; conditions: postemergence spray, rated about two-three weeks after treatment
# Procedure, shortened: as §2
structure (smiles),measurement,setting,value
CC(C)c1ccc(-n2nnc3cc(F)c(-n4c(=O)cc(C(F)(F)F)n(C)c4=O)cc32)cc1 [Example 21],IPOHE herbicidal rating,[1]; rate 0.016 kg/ha,0.0
same,IPOHE herbicidal rating,[1]; rate 0.032 kg/ha,1.5
same,IPOHE herbicidal rating,[1]; rate 0.062 kg/ha,2.0
same,IPOHE herbicidal rating,[1]; rate 0.125 kg/ha,3.5
same,AMBEL herbicidal rating,"AMBEL Ragweed, Common [2]; rate 0.016 kg/ha",0.0
same,AMBEL herbicidal rating,"AMBEL Ragweed, Common [2]; rate 0.032 kg/ha",3.0
same,AMBEL herbicidal rating,"AMBEL Ragweed, Common [2]; rate 0.062 kg/ha",3.5
same,AMBEL herbicidal rating,"AMBEL Ragweed, Common [2]; rate 0.125 kg/ha",7.5
same,Postemergence herbicidal rating SETVI,"SETVI Foxtail, Green [3]; 0.008 kg/ha",0.0
same,Postemergence herbicidal rating SETVI,"SETVI Foxtail, Green [3]; 0.016 kg/ha",0.0
same,Postemergence herbicidal rating SETVI,"SETVI Foxtail, Green [3]; 0.032 kg/ha",5.0
same,Postemergence herbicidal rating SETVI,"SETVI Foxtail, Green [3]; 0.062 kg/ha",5.0
same,GLXMAW herbicidal rating,"GLXMAW Soybean, Williams [4]; rate 0.016 kg/ha",0.0
same,GLXMAW herbicidal rating,"GLXMAW Soybean, Williams [4]; rate 0.032 kg/ha",0.0
same,GLXMAW herbicidal rating,"GLXMAW Soybean, Williams [4]; rate 0.062 kg/ha",0.5
same,GLXMAW herbicidal rating,"GLXMAW Soybean, Williams [4]; rate 0.125 kg/ha",1.0
same,SETVI herbicidal rating,"SETVI Foxtail, Green [5]; rate 0.016 kg/ha",0.0
same,SETVI herbicidal rating,"SETVI Foxtail, Green [5]; rate 0.032 kg/ha",2.0
same,SETVI herbicidal rating,"SETVI Foxtail, Green [5]; rate 0.062 kg/ha",6.5
same,SETVI herbicidal rating,"SETVI Foxtail, Green [5]; rate 0.125 kg/ha",9.0
same,Postemergence herbicidal rating CASOB,CASOB Sicklepod [6]; 0.008 kg/ha,0.0
same,Postemergence herbicidal rating CASOB,CASOB Sicklepod [6]; 0.016 kg/ha,0.0
same,Postemergence herbicidal rating CASOB,CASOB Sicklepod [6]; 0.032 kg/ha,1.0
same,Postemergence herbicidal rating CASOB,CASOB Sicklepod [6]; 0.062 kg/ha,2.0
same,TRZAWR herbicidal rating,[7]; rate 0.016 kg/ha,0.0
same,TRZAWR herbicidal rating,[7]; rate 0.032 kg/ha,0.0
same,TRZAWR herbicidal rating,[7]; rate 0.062 kg/ha,0.0
same,TRZAWR herbicidal rating,[7]; rate 0.125 kg/ha,1.0
same,CASOB herbicidal rating,CASOB Sicklepod [8]; rate 0.016 kg/ha,0.0
same,CASOB herbicidal rating,CASOB Sicklepod [8]; rate 0.032 kg/ha,0.0
same,CASOB herbicidal rating,CASOB Sicklepod [8]; rate 0.062 kg/ha,1.5
same,CASOB herbicidal rating,CASOB Sicklepod [8]; rate 0.125 kg/ha,2.0
same,Postemergence herbicidal rating AMBEL,"AMBEL Ragweed, Common [9]; 0.008 kg/ha",2.0
same,Postemergence herbicidal rating AMBEL,"AMBEL Ragweed, Common [9]; 0.016 kg/ha",9.0
same,Postemergence herbicidal rating AMBEL,"AMBEL Ragweed, Common [9]; 0.032 kg/ha",9.0
same,Postemergence herbicidal rating AMBEL,"AMBEL Ragweed, Common [9]; 0.062 kg/ha",9.0
same,Postemergence herbicidal rating GALAP,GALAP Galium [10]; 0.008 kg/ha,2.0
same,Postemergence herbicidal rating GALAP,GALAP Galium [10]; 0.016 kg/ha,4.0
same,Postemergence herbicidal rating GALAP,GALAP Galium [10]; 0.032 kg/ha,4.0
same,Postemergence herbicidal rating GALAP,GALAP Galium [10]; 0.062 kg/ha,9.0
same,ECHCG herbicidal rating,ECHOG Barnyardgrass [11]; rate 0.016 kg/ha,0.0
same,ECHCG herbicidal rating,ECHOG Barnyardgrass [11]; rate 0.032 kg/ha,0.0
same,ECHCG herbicidal rating,ECHOG Barnyardgrass [11]; rate 0.062 kg/ha,1.0
same,ECHCG herbicidal rating,ECHOG Barnyardgrass [11]; rate 0.125 kg/ha,3.5
same,ZEAMX herbicidal rating,"ZEAMX Corn, Field [12]; rate 0.016 kg/ha",0.0
same,ZEAMX herbicidal rating,"ZEAMX Corn, Field [12]; rate 0.032 kg/ha",0.0
same,ZEAMX herbicidal rating,"ZEAMX Corn, Field [12]; rate 0.062 kg/ha",1.0
same,ZEAMX herbicidal rating,"ZEAMX Corn, Field [12]; rate 0.125 kg/ha",3.5
same,ORYSAT herbicidal rating,"ORYSAT Rice, Tebonnet [13]; rate 0.016 kg/ha",0.0
same,ORYSAT herbicidal rating,"ORYSAT Rice, Tebonnet [13]; rate 0.032 kg/ha",0.0
same,ORYSAT herbicidal rating,"ORYSAT Rice, Tebonnet [13]; rate 0.062 kg/ha",0.0
same,ORYSAT herbicidal rating,"ORYSAT Rice, Tebonnet [13]; rate 0.125 kg/ha",0.0
same,Postemergence herbicidal rating ECHCG,ECHOG Barnyardgrass [14]; 0.008 kg/ha,0.0
same,Postemergence herbicidal rating ECHCG,ECHOG Barnyardgrass [14]; 0.016 kg/ha,0.0
same,Postemergence herbicidal rating ECHCG,ECHOG Barnyardgrass [14]; 0.032 kg/ha,0.0
same,Postemergence herbicidal rating ECHCG,ECHOG Barnyardgrass [14]; 0.062 kg/ha,0.0
same,Postemergence herbicidal rating GLXMAW,"GLXMAW Soybean, Williams [15]; 0.008 kg/ha",4.5
same,Postemergence herbicidal rating GLXMAW,"GLXMAW Soybean, Williams [15]; 0.016 kg/ha",5.0
same,Postemergence herbicidal rating GLXMAW,"GLXMAW Soybean, Williams [15]; 0.032 kg/ha",5.5
same,Postemergence herbicidal rating GLXMAW,"GLXMAW Soybean, Williams [15]; 0.062 kg/ha",5.5
same,GALAP herbicidal rating,GALAP Galium [16]; rate 0.016 kg/ha,0.0
same,GALAP herbicidal rating,GALAP Galium [16]; rate 0.032 kg/ha,0.0
same,GALAP herbicidal rating,GALAP Galium [16]; rate 0.062 kg/ha,0.0
same,GALAP herbicidal rating,GALAP Galium [16]; rate 0.125 kg/ha,0.0
same,Postemergence herbicidal rating CHEAL,[17]; 0.008 kg/ha,8.0
same,Postemergence herbicidal rating CHEAL,[17]; 0.016 kg/ha,4.0
same,Postemergence herbicidal rating CHEAL,[17]; 0.032 kg/ha,9.0
same,Postemergence herbicidal rating CHEAL,[17]; 0.062 kg/ha,9.0
same,CHEAL herbicidal rating,[18]; rate 0.016 kg/ha,9.0
same,CHEAL herbicidal rating,[18]; rate 0.032 kg/ha,9.0
same,CHEAL herbicidal rating,[18]; rate 0.062 kg/ha,9.0
same,CHEAL herbicidal rating,[18]; rate 0.125 kg/ha,9.0
same,Postemergence herbicidal rating TRZAWR,[19]; 0.008 kg/ha,3.5
same,Postemergence herbicidal rating TRZAWR,[19]; 0.016 kg/ha,4.0
same,Postemergence herbicidal rating TRZAWR,[19]; 0.032 kg/ha,4.0
same,Postemergence herbicidal rating TRZAWR,[19]; 0.062 kg/ha,4.0
same,Postemergence herbicidal rating ABUTH,ABUTH Velvetleaf [20]; 0.008 kg/ha,9.0
same,Postemergence herbicidal rating ABUTH,ABUTH Velvetleaf [20]; 0.016 kg/ha,9.0
same,Postemergence herbicidal rating ABUTH,ABUTH Velvetleaf [20]; 0.032 kg/ha,9.0
same,Postemergence herbicidal rating ABUTH,ABUTH Velvetleaf [20]; 0.062 kg/ha,9.0
same,Postemergence herbicidal rating ZEAMX,"ZEAMX Corn, Field [21]; 0.008 kg/ha",4.5
same,Postemergence herbicidal rating ZEAMX,"ZEAMX Corn, Field [21]; 0.016 kg/ha",4.5
same,Postemergence herbicidal rating ZEAMX,"ZEAMX Corn, Field [21]; 0.032 kg/ha",4.5
same,Postemergence herbicidal rating ZEAMX,"ZEAMX Corn, Field [21]; 0.062 kg/ha",5.0
same,ABUTH herbicidal rating,ABUTH Velvetleaf [22]; rate 0.016 kg/ha,0.0
same,ABUTH herbicidal rating,ABUTH Velvetleaf [22]; rate 0.032 kg/ha,4.5
same,ABUTH herbicidal rating,ABUTH Velvetleaf [22]; rate 0.062 kg/ha,6.0
same,ABUTH herbicidal rating,ABUTH Velvetleaf [22]; rate 0.125 kg/ha,9.0
same,Postemergence herbicidal rating ORYSAT,"ORYSAT Rice, Tebonnet [23]; 0.008 kg/ha",3.0
same,Postemergence herbicidal rating ORYSAT,"ORYSAT Rice, Tebonnet [23]; 0.016 kg/ha",3.5
same,Postemergence herbicidal rating ORYSAT,"ORYSAT Rice, Tebonnet [23]; 0.032 kg/ha",3.5
same,Postemergence herbicidal rating ORYSAT,"ORYSAT Rice, Tebonnet [23]; 0.062 kg/ha",3.5
same,Postemergence herbicidal rating IPOHE,[24]; 0.008 kg/ha,9.0
same,Postemergence herbicidal rating IPOHE,[24]; 0.016 kg/ha,9.0
same,Postemergence herbicidal rating IPOHE,[24]; 0.032 kg/ha,6.0
same,Postemergence herbicidal rating IPOHE,[24]; 0.062 kg/ha,9.0
